Entries after “also recorded” stand apart in the source; their conditions may differ. Read-outs that look alike come from different tables or passages of the source. Blank lines part the entries; values can stand above or below the compound they belong to.
Tests used:
[1] = Remote loading of GSK3 inhibitors into silicasomes: encapsulation efficiency and loading capacity; assay type: physicochemical; conditions: for encapsulation efficiency in silicasomes (in words): remote loading at 5, 10 or 20 feed weight %
Experimental: The overall scheme for the synthesis of silicasome carriers to deliver GSK3 inhibitors is outlined in FIG. 3. Briefly, a large batch (i.e. 120 g) synthesis of bare particles was carried out as previously, yielding ˜70 nm MSNPs (FIG. 3, panel A) (22). […] 20 mg soaked-in MSNPs were then used together with an ethanol suspended lipid solution, comprised of a mixture of 60 mg DSPC:Cholesterol:PE-PEG2000 (molar ratio of 6:4:0.3), for coating with a lipid bilayer by a flow through sonication procedure (FIG. 3, panel B). Following the removal of the non-encapsulated trapping agent, AZD2858, AZD1080, LY2090314, and 1-Azakenpaullone were dissolved in 0.9% saline and incubated with the silicasome carrier to assess the loading capacity in response to different feed weight percentages (FIG. 11).
Four GSK3 inhibitor-laden silicasome formulations were analyzed to assess encapsulation efficiency and loading capacity. 100 μL of the silicasomes suspension at 10 mg/mL in 0.9% NaCl (1 mg silicasomes) was added to AZD1080, AZD2858, LY2090314, and 1-azakenpaullone solutions, which were prepared by adding 50, 100 or 200 μg of each inhibitor to 900 μL water. These drug mass quantities provided feed weight percentages of 5, 10, and 20%, in comparison to the silicasome mass. Following execution of the remote loading procedure as detailed above, the crude solutions were used to assess absorbance in a glass bottom 96-well plate (Total Drug Absorbance). Silicasomes were centrifuged at 21,000×g for 15 minutes to pellet the particles. After removal of the supernatant, the silicasomes were re-suspended in aa fresh 0.9% NaCl solution. This was repeated three times to remove any unloaded inhibitor. The silicasome solution was then sampled and absorbance was measured to determine Loaded Drug Absorbance. Concentration-matched unloaded ‘blank’ silicasomes also had absorbance measured (Silicasome Blank Absorbance). Encapsulation efficiency was calculated by the following formula: […]
All measurements were taken using a SpectraMax M5 plate reader (Molecular Devices). All solutions were diluted 1/10 in 0.9% NaCl solution prior to absorbance reads. The absorbances used for each compound were: 418 nm for AZD1080, 383 nm for AZD2858, 213 nm for LY2090314, and 334 nm for 1-azakenpaullone.

[2] = tested on: GSK3; conditions: cited from earlier work
[3] = Phase 2 candidate, trial abandoned; literature (54); cited from earlier work
[4] = tested on: Pdcd1 expression; assay: RT-qPCR of Pdcd1 in anti-CD3 activated primary murine T-cells; assay type: cell-based, C57BL/6 mouse; conditions: 10 μM, 72 hours, normalized against Gapdh
Experimental: (§1) This is compatible with the translational expression of T-bet, a transcription factor that interferes in PD-1 expression (FIG. 1, panel B).
(§2) Wells of a 96-well tissue culture plate were coated with anti-mouse CD3 antibody (Ultra-LEAF, Biolegend). 7.5 μL of 1 mg/mL antibody solution was diluted in 1 mL of 1×PBS, before 50 μL of the dilution was added to each plate well for 2 hours at 37° C. The wells were then thoroughly washed 3× with 1×PBS.
(§3) T-cells were extracted from C57BL/6 mouse spleens, using a standard procedure with minor modifications (71). Two mouse spleens were mechanically disrupted and the released cells were passed through a 70 μm filter. Red blood cells were lysed using RBC lysis buffer (eBioscience) at 4° C. for 5 minutes. 10 mL of 1×PBS was added to stop the lysis process, following which cells were pelleted at 300×g for 5 minutes. […]
(§4) Cells were collected and RNA was extracted using Direct-zol RNA MiniPrep Plus kits (Zymo), as per the manufacturer's instructions. Extracted RNA was converted into cDNA using SuperScript III First-Strand Synthesis System kits (Invitrogen). cDNA from treated T-cells was analyzed by RT-PCR using a LightCycler 480 instrument (Roche) and the LightCycler 480 SYBR Green I Master kit (Roche), per manufacturer's instructions. cDNA was analyzed using forward and reverse primers for Pdcd1, Tbx21, and Gapdh as a control, as described previously (10, 14). […]

[5] = tested on: Tbx21 expression; assay: RT-qPCR of Tbx21 in anti-CD3 activated primary murine T-cells; assay type: cell-based, C57BL/6 mouse; conditions: 10 μM, 72 hours, normalized against Gapdh
Experimental: as §1, §2, §3, §4

[6] = tested on: MC38 colon cancer; assay: MC38 syngeneic colon cancer model, subcutaneous tumor growth; assay type: in vivo, C57BL/6 mice; conditions: MC38; three administrations; n=15 per group
Experimental: Treatment was repeated every three days for a total of three administrations. Mice were sacrificed four days after the final treatment. The study was executed as two separate experiments, using animal group sizes of n=6 and n=9, respectively. […] The first set of analyses was performed on the tumor volume growth curves (FIG. 5, panel A), impact on final tumor volumes (FIG. 5, panel B) and tumor weight (FIG. 5, panel C) at the time of sacrifice.
MC38 cells, stably transfected with a luciferase vector, were inoculated into the right flank of C57BL/6 mice, using 0.7×10^6 cells in 40% Matrigel 1×PBS solution. Tumors were allowed to grow to a size of ˜50 mm^3 prior to the initiation of treatment, approximately 14 days after initial inoculation. Mice with outlier tumor sizes (either too small or too large) were excluded from further study. The remaining animals were randomly assigned to the different treatment groups. Mice were treated with three injections, set three days apart, and were sacrificed 4 days after the final treatment administration. […] Two separate experiments were performed, the first with n=6 mice per group and the second with n=9 animals.

[7] = tested on: CD8+ T-cells in MC38 tumors; assay: Flow cytometry of tumor-infiltrating CD8+ T-cells in MC38 tumors; assay type: in vivo, C57BL/6 mice
Text: In order to address the change in the immunological landscape with treatment, we asked whether sAZD1080 could impact the immune parameters that underpin treatment efficacy for immune checkpoint blocking antibodies. These include the CD8^+ cell number, the abundance of PD-1 expression on these cells, perforin release and the generation of cancer cell death, as reflected by activated caspase 3. For the first analysis, tumor cell digests were used to assess the number of CD8^+/CD107a^+/granzyme B^+ lymphocytes by flow cytometry (14, 30). […] In order to assess the status of PD-1 expression on CD8+ cells, flow cytometry was used to assess the % of […] cells in the tumor digests (14, 31).
Tumors were harvested from MC38 mice after sacrifice. Tumors larger than 100 mm^3 were divided in two, with one half preserved for histology and the other half used to conduct flow cytometry. To prepare samples for flow cytometry, tumor chunks of 2-3 mm^3 were incubated in an enzyme cocktail (1 mg/mL collagenase type IV, 2000 U DNase type IV, 0.1 mg/mL hyaluronidase type V in 1×HBSS) for 1 hour, and the digests passed through a 70 μm nylon filter. Cells were pelleted and washed in HBSS.
Cells were diluted in cell staining buffer, pelleted by centrifuging at 350×g for 5 minutes, and washed twice. […]

[8] = tested on: T-bet; conditions: T-cells; literature (10, 13, 14); cited from earlier work
[9] = values provided by chemical vendors (Cayman Chemical, Selleck Chemicals)

Compound: O=C1Cc2c([nH]c3ccc(Br)cc23)-c2ncccc2N1 [1-Azakenpaullone]
encapsulation efficiency in silicasomes (in words) [1]: comparatively low

Compound: O=c1cc(-c2ccc(O)c(O)c2O)oc2ccccc12 [2-D08]
IC50 [2, 9]: 11 nM

encapsulation efficiency in silicasomes (in words) [1]: moderate efficiency
Compound: CN1CCN(S(=O)(=O)c2ccc(-c3cnc(N)c(C(=O)Nc4cccnc4)n3)cc2)CC1 [AZD2858]
solubility during remote loading (in words) ([1]; dissolved in 0.9% saline, incubated with silicasome carrier, feed weight %): precipitated; also recorded: poor solubility

Compound: Cc1[nH]c2ccccc2c1C1=C(NCCc2ccc(F)cc2)C(=O)N(C)C1=O [IM-12]
IC50 [2, 9]: 53 nM

Compound: O=C1NC(=O)C(c2cnc3ccccn23)=C1c1cn2c3c(cc(F)cc13)CN(C(=O)N1CCCCC1)CC2 [LY2090314]
encapsulation efficiency in silicasomes (in words) [1]: moderate efficiency | IC50 [2, 9]: 0.9 nM | PK and bioavailability in clinical trial [3]: poor PK and drug bioavailability

Compound: O=C1NC(=O)C(c2ccccc2[N+](=O)[O-])=C1Nc1ccc(O)c(Cl)c1 [SB415286]
reduction in Pdcd1 mRNA expression [4]: ~2.2 fold | Tbx21 mRNA expression [5]: increased | number of tumor-free animals at time of sacrifice (out of 15) [6]: 1/15 | % of CD8/PD-1+ cells in the tumor digests [7]: did not impact | expression of T-bet [8]: increase

Compound: Nc1cccc(-c2cc3c(Oc4cccc(O)c4)ncnc3[nH]2)c1 [TWS119]
IC50 [2, 9]: 40 nM

Compound: BIO-acetoxime
IC50 [2, 9]: 10 nM

Compound: CHIR98014
IC50 [2]: 0.58 nM

Compound: Indirubin-3′-monoxime
IC50 [2, 9]: 22 nM
